Assay results: US8791264B2 (Purdue Pharma L.P., priority 2006, dated 2014)

Key:
[1] = target: T1, N-type calcium channel (NTCC) (Homo sapiens, UniProt Q00975); experiment: FLIPR calcium mobilization assay for N-type calcium channel; format: cell-based; conditions: calcium mobilization in vitro assay; differentiated IMR32 cells
T1 construct: host or cells: IMR32 cells differentiated with dibutyryl cAMP and bromodeoxyuridine
Experimental: Unless noted otherwise, cell culture reagents were purchased from Mediatech of Herndon, Md. IMR32 cells (American Type Culture Collection, ATCC, Manassas, Va.) were routinely cultured in growth medium consisting of minimum essential medium containing 10% fetal bovine serum (FBS, Hyclone, Logan, Utah), 100 U/mL penicillin, 100 μg/mL streptomycin, 2 mM L-glutamine, 1 mM sodium pyruvate, and 1× MEM non-essential amino acids. 80-90% confluent flasks of cells were differentiated using the following differentiation medium: Growth medium plus 1 mM dibutyryl cyclic AMP (Sigma, St. Louis, Mo.), and 2.5 μM bromodeoxyuridine (Sigma). Cells were differentiated for 8 days by replacing differentiation medium every 2-3 days.
FLIPR Calcium Mobilization Assay for N-Type Calcium Channel.
One day prior to performing this assay, differentiated IMR32 cells were treated with 1× CellStripper, and seeded on poly-D-lysine-coated 96-well clear-bottom black plates (Becton Dickinson, Franklin Lakes, N.J.) at 200,000 cells/well. On the day of the assay, the cell plates were washed with IMR32 buffer (127 mM NaCl, 1 mM KCl, 2 mM MgCl2, 700 μM NaH2PO4, 5 mM CaCl2, 5 mM NaHCO3, 8 mM HEPES, 10 mM glucose, pH 7.4), then pre-stimulated with KCl and loaded as follows: 0.05 mL of IMR32 buffer, 0.05 mL of each compound tested diluted in IMR32 buffer containing 20 μM nitrendipine (Sigma), and 0.1 mL KCl dissolved in IMR32 buffer, plus Fluo-4 were added (3 μM final concentration, Molecular Probes, Eugene, Oreg.). Final test compound concentrations ranged from about 846 pM to about 17 μM, final nitrendipine concentration was 5 μM, and final KCl concentration was 90 mM. After 1 hour, the cells were washed twice with 0.05 mL of each compound is tested in nitrendipine-containing IMR32 buffer (no KCl or Fluo-4), and then replaced with 0.1 mL of each compound tested in nitrendipine-containing IMR32 buffer. Plates were then transferred to a Fluorimetric Imaging Plate Reader (FLIPR^96, Molecular Devices, Inc., Sunnyvale, Calif.) for assay. The FLIPR measured basal Fluo-4 fluorescence for 315 seconds (i.e., 5 minutes and 15 seconds), then added 0.1 mL KCl agonist dissolved in IMR32 buffer and measured fluorescence for another 45 seconds. Final test compound concentrations on the cells after FLIPR read ranged from about 846 pM to about 17 μM, final nitrendipine concentration was 5 μM, and final KCl concentration was 90 mM. Data were collected over the entire time course and analyzed using Excel, Graph Pad Prism (version 3.02, Graph Pad, San Diego, Calif.), or an in-house non-linear regression analysis software.

[2] = target: T2, recombinant rat L-type calcium channel (LTCC) subunits (α1c, α2δ, and β1) (Rattus norvegicus, UniProt P22002); experiment: FLIPR calcium mobilization assay for L-type calcium channel; format: cell-based; conditions: calcium mobilization in vitro assay; HEK293 cells expressing rat LTCC
T2 construct: expressed in transfected cells
Experimental: Recombinant human embryonal kidney cells (HEK293, ATCC) stably transfected with either N-type calcium channel (NTCC) subunits (α1b, α2δ, and ⊖3) or L-type calcium channel (LTCC) subunits (α1, α2δ, and β1) were routinely cultured in growth medium consisting of Dulbecco's Modified Eagles Medium containing 10% FBS, 100 U/mL penicillin, 100 μg/mL streptomycin, 4 mM L-glutamine, 500 μg/mL geneticin (G418), 20 μg/mL Blasticidin S (InVivogen, San Diego, Calif.) and 500 μg/mL zeocin (InVivogen).
FLIPR Calcium Mobilization Assay for L-Type Calcium Channel.
One day prior to performing this assay, HEK293 cells stably expressing recombinant rat L-type calcium channel (LTCC) subunits (α1c, α2δ, and β1) were trypsinized, then seeded on poly-D-lysine-coated 96-well clear-bottom black plates (Becton Dickinson, Franklin Lakes, N.J.) at 75,000 cells/well. On the day of the assay, the plates were washed with LTCC wash buffer (127 mM NaCl, 2 mM MgCl2, 700 μM NaH2PO4, 5 mM CaCl2, 5 mM NaHCO3, 8 mM HEPES, 10 mM glucose, pH 7.4), then loaded with 0.1 mL of LTCC wash buffer containing Fluo-4 (3 μM final concentration, Molecular Probes, Eugene, Oreg.). After 1 hour, the cells were washed with 0.1 mL LTCC wash buffer and resuspended in 0.05 mL LTCC assay buffer (same composition as LTCC wash buffer). Plates were then transferred to a FLIPR^96 for assay. The FLIPR measured basal Fluo-4 fluorescence for 15 seconds, then is added 0.05 mL of each compound tested diluted in LTCC assay buffer at final concentrations ranging from about 846 pM to about 17 μM. Fluo-4 fluorescence was then measured for 5 minutes. 0.1 mL KCl agonist dissolved in LTCC assay buffer was then added to the cells to produce a final concentration of 90 mM KCl, and fluorescence was measured for another 45 seconds. Data were collected over the entire time course and analyzed using Excel, Graph Pad Prism, or an in-house regression analysis software.

T1 sequence (Q00975 whole entry): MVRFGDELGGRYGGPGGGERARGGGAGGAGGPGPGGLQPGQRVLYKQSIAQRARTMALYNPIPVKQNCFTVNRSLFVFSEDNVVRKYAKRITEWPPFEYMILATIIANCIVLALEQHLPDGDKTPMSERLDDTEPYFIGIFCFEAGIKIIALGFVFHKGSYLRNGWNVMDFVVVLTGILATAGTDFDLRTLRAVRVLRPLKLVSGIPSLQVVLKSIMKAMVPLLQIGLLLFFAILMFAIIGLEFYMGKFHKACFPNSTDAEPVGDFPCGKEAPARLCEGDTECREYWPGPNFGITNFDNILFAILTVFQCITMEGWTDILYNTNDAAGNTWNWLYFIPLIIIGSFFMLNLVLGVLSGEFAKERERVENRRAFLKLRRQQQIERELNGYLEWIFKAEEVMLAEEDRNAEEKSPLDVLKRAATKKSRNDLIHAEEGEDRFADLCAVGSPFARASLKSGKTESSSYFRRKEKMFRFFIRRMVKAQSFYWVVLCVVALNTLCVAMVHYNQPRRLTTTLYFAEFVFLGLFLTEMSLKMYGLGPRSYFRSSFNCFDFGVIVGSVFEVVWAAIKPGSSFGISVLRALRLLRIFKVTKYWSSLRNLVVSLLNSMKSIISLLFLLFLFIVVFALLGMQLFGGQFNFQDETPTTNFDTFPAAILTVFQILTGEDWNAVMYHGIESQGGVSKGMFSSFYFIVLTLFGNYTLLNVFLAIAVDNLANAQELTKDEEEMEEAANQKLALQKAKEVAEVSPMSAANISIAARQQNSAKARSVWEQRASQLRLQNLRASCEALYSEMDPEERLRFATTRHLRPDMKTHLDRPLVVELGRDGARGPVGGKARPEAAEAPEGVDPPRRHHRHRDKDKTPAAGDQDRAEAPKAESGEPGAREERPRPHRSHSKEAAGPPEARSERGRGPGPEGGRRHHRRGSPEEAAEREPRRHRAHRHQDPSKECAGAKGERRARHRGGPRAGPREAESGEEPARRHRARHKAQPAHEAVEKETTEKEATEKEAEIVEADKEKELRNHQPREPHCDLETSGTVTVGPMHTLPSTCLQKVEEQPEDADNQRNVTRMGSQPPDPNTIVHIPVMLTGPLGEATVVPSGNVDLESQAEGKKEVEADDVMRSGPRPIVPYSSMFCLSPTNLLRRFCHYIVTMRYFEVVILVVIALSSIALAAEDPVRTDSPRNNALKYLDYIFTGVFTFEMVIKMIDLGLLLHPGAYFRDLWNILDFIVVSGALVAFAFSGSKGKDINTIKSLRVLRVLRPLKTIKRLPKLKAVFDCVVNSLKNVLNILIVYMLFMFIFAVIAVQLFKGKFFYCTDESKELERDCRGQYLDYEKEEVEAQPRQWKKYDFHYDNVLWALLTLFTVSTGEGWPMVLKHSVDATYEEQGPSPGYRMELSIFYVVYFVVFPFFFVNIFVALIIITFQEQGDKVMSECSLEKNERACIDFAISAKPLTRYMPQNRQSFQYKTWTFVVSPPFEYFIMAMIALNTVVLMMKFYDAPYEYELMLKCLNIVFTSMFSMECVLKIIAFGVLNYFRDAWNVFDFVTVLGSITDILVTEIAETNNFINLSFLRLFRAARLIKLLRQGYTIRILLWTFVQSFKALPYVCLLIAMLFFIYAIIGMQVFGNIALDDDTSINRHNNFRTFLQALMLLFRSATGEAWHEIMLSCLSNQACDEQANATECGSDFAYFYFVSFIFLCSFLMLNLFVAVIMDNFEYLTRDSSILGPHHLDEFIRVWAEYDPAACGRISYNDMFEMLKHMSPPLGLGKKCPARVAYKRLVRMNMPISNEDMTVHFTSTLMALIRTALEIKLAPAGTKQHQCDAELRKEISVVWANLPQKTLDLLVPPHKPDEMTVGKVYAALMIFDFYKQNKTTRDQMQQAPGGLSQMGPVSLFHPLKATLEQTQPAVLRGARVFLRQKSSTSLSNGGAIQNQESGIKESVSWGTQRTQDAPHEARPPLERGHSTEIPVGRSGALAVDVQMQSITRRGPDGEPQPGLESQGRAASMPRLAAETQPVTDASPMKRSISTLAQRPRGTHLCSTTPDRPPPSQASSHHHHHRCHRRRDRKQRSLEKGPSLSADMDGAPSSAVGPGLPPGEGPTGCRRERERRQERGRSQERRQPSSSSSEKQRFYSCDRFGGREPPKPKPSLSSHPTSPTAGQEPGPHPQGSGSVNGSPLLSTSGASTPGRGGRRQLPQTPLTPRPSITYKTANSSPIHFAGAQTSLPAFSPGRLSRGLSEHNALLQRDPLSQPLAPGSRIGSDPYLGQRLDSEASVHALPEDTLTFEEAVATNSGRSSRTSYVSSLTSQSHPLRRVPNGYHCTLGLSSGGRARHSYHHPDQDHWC
T1 sequence (P54289 25-956 partner limits assumed): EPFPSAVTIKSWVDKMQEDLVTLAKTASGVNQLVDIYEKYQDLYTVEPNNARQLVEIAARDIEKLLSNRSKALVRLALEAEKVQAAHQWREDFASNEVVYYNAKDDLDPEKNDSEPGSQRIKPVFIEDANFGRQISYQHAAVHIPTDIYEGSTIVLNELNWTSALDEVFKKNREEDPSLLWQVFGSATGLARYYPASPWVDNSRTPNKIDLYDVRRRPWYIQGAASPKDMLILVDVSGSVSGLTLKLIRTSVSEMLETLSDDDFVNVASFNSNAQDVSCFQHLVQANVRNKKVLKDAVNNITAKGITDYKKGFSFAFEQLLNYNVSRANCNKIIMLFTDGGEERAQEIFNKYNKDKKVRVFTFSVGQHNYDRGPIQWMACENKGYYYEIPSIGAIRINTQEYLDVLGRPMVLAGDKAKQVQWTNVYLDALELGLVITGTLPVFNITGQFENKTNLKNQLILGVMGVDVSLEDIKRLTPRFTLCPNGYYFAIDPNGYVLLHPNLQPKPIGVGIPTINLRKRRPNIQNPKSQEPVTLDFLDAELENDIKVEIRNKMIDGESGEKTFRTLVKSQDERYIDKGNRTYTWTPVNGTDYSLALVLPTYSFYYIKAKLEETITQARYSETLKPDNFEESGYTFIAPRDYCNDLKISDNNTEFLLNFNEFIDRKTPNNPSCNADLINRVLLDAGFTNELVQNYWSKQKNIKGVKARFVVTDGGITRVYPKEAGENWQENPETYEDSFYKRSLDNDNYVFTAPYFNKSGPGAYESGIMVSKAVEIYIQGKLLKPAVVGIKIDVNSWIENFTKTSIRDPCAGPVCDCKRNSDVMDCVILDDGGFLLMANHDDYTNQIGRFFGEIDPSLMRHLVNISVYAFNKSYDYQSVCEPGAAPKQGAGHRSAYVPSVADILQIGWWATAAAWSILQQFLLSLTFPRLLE
T1 sequence (P54289 957-1103 partner limits assumed): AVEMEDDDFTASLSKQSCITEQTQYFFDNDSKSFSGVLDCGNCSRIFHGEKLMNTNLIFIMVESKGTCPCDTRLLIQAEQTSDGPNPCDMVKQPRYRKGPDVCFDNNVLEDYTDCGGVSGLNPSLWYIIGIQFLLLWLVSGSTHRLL
T1 sequence (P54284 whole entry partner): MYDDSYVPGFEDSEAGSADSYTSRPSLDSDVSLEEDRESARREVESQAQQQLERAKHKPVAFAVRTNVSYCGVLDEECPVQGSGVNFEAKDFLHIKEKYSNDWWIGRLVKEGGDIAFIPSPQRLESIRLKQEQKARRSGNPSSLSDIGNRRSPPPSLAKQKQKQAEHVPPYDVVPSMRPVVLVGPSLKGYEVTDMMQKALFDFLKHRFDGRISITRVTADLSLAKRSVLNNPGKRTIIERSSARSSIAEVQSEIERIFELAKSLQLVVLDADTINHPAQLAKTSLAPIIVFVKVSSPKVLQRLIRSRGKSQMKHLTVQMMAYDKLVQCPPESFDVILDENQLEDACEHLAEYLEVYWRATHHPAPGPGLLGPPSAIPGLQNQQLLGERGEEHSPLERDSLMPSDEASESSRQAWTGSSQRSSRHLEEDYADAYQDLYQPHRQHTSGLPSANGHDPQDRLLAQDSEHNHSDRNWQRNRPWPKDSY

IC50 [1] [nM] | IC50 [2] [µM] | Compound
620 | > 20 | CC(C)N(C1CCN(CCCN(c2ccc(F)cc2)c2ccc(F)cc2)CC1)S(=O)(=O)c1cccc(C(F)(F)F)c1 [Compound 8, N-(1-{3-[Bis(4-fluorophenyl)amino]propyl}piperidin-4-yl)-N-isopropyl-3-trifluoromethylbenzenesulfonamide]
700 | > 20 | O=C(Nc1ccc(F)cc1)C(=O)N1CCC(N(C2CC2)S(=O)(=O)c2cccc(C(F)(F)F)c2)CC1 [Compound 22, 2-{4-[Cyclopropyl-(3-trifluoromethylbenzenesulfonyl)amino]-piperidin-1-yl}-N-(4-fluorophenyl)-2-oxo-acetamide]
440 | 3.78 | O=C(CC(=O)N1CCC(N(C2CC2)S(=O)(=O)c2cccc(C(F)(F)F)c2)CC1)Nc1ccc(F)cc1 [Compound 26, 3-{4-[Cyclopropyl-(3-trifluoromethylbenzenesulfonyl)amino]-piperidin-1-yl}-N-(4-fluorophenyl)-3-oxo-propionamide]
320 | 9.08 | CC(C)CNC(=O)CN1CCC(N(C(C)C)S(=O)(=O)c2cccc(C(F)(F)F)c2)CC1 [Compound 34, N-Isobutyl-2-{4-[isopropyl-(3-trifluoromethylbenzenesulfonyl)amino]-piperidin-1-yl}-acetamide]
840 | 3.26 | CCN(CC)C(=O)CN1CCC(N(C2CC2)S(=O)(=O)c2cccc(C(F)(F)F)c2)CC1 [Compound 38, 2-{4-[Cyclopropyl-(3-trifluoromethylbenzenesulfonyl)amino]-piperidin-1-yl}-N,N-diethylacetamide]
460 | 3.23 | Cc1ccccc1NC(=O)CN1CCC(N(C(C)C)S(=O)(=O)c2cccc(C(F)(F)F)c2)CC1 [Compound 42b, 2-{4-[Isopropyl-(3-trifluoromethylbenzenesulfonyl)amino]-piperidin-1-yl}-N-o-tolyl-acetamide]
110 | 9.54 | CCOc1ccccc1NC(=O)CN1CCC(N(C(C)C)S(=O)(=O)c2cccc(C(F)(F)F)c2)CC1 [Compound 42c, N-(2-Ethoxyphenyl)-2-{4-[isopropyl-(3-trifluoromethylbenzenesulfonyl)amino]-piperidin-1-yl}-acetamide]
450 | > 20 | Cc1cccc(NC(=O)CN2CCC(N(C(C)C)S(=O)(=O)c3cccc(C(F)(F)F)c3)CC2)c1 [Compound 42d, 2-{4-[Isopropyl-(3-trifluoromethylbenzenesulfonyl)amino]-piperidin-1-yl}-N-m-tolyl-acetamide]
630 | > 20 | CC(C)c1ccc(NC(=O)CN2CCC(N(C(C)C)S(=O)(=O)c3cccc(C(F)(F)F)c3)CC2)cc1 [Compound 42f, N-(4-Isopropylphenyl)-2-{4-[isopropyl-(3-trifluoromethylbenzenesulfonyl)amino]-piperidin-1-yl}-acetamide]
180 | 2.51 | CC(C)N(C1CCN(CC(=O)Nc2ccc(C#N)cc2)CC1)S(=O)(=O)c1cccc(C(F)(F)F)c1 [Compound 42g, N-(4-Cyanophenyl)-2-{4-[isopropyl-(3-trifluoromethylbenzenesulfonyl)amino]-piperidin-1-yl}-acetamide]
460 | 5.32 | COc1ccc(NC(=O)CN2CCC(N(C(C)C)S(=O)(=O)c3cccc(C(F)(F)F)c3)CC2)cc1 [Compound 42h, 2-{4-[isopropyl-(3-trifluoromethylbenzenesulfonyl)amino]-piperidin-1-yl}-N-(4-methoxyphenyl)acetamide]
670 | > 20 | CC(C)N(C1CCN(CC(=O)Nc2nc3ccc(F)cc3s2)CC1)S(=O)(=O)c1cccc(C(F)(F)F)c1 [Compound 42i, N-(6-Fluorobenzothiazol-2-yl)-2-{4-[isopropyl-(3-trifluoromethylbenzenesulfonyl)amino]-piperidin-1-yl}-acetamide]
330 | > 20 | CC(C)N(C1CCN(CC(=O)N(C)c2ccc(F)cc2)CC1)S(=O)(=O)c1cccc(C(F)(F)F)c1 [Compound 42j, N-(4-Fluorophenyl)-2-{4-[isopropyl-(3-trifluoromethyl-benzenesulfonyl)amino]-piperidin-1-yl}-N-methyl-acetamide]
330 | 4.16 | CC(C)N(C1CCN(CC(=O)NCc2ccc(F)cc2)CC1)S(=O)(=O)c1cccc(C(F)(F)F)c1 [Compound 42k, N-(4-Fluorobenzyl)-2-{4-[isopropyl-(3-trifluoromethylbenzenesulfonyl)amino]-piperidin-1-yl}-acetamide]
250 | > 20 | CC(C)N(C1CCN(CC(=O)Nc2ccc(OC(F)(F)F)cc2)CC1)S(=O)(=O)c1cccc(C(F)(F)F)c1 [Compound 42l, 2-{4-[Isopropyl-(3-trifluoromethylbenzenesulfonyl)amino]-piperidin-1-yl}-N-(4-trifluoromethoxyphenyl)-acetamide]
410 | > 20 | CC(C)N(C1CCN(CC(=O)Nc2ccc(C(F)(F)F)cn2)CC1)S(=O)(=O)c1cccc(C(F)(F)F)c1 [Compound 42m, 2-{4-[Isopropyl-(3-trifluoromethylbenzenesulfonyl)amino]-piperidin-1-yl}-N-(5-trifluoromethylpyridin-2-yl)-acetamide]
280 | 2.68 | CC(C)N(C1CCN(CC(=O)Nc2ccc(F)cc2)CC1)S(=O)(=O)c1cccc(C(F)(F)F)c1 [Compound 44, N-(4-Fluorophenyl)-2-{4-[isopropyl-(3-trifluoromethylbenzenesulfonyl)amino]-piperidin-1-yl}-acetamide]
840 | 10 to 20 | O=C(CN1CCC(N(C2CC2)S(=O)(=O)c2cccc(Cl)c2)CC1)Nc1ccc(F)cc1 [Compound 50, 2-{4-[(3-Chlorobenzenesulfonyl)cyclopropylamino]-piperidin-1-yl}-N-(4-fluorophenyl)acetamide]
700 | > 20 | CN(C1CCN(CC(=O)Nc2ccc(F)cc2)CC1)S(=O)(=O)c1cccc(C(F)(F)F)c1 [Compound 51, N-(4-Fluorophenyl)-2-{4-[methyl-(3-trifluoromethylbenzenesulfonyl)-amino]-piperidin-1-yl}-acetamide]
540 | > 20 | CCOC(=O)c1ccc(NC(=O)CN2CCC(N(C3CC3)S(=O)(=O)c3cccc(C(F)(F)F)c3)CC2)cc1 [Compound 54, 4-(2-{4-[Cyclopropyl-(3-trifluoromethylbenzenesulfonyl)amino]-piperidin-1-yl}-acetylamino)benzoic acid ethyl ester]
